Experimental data as given in patent US20030055007A1, “Antimicrobial agents” (priority 2001, published 2003).
Values after ≈ are worked out from the molar mass of the structure shown. Where two headings read alike, the source gives them in different places.

How the values were obtained:
[1] = tested on: Influenza virus B/Hokkaidou/1/97; experiment: microbe, parasite or virus in culture; type: cell-based; conditions: for MIC: unidentified influenza virus, read-out: Minimum inhibitory concentration (MIC)
S. Enteritidis = experiment: Antibacterial activity test (2), dilution on agar culture medium; type: cell-based; conditions: 30° C., 17 hours, 1:40 = 2 mg/ml, <40-fold = no complete inhibition at 1:40
B. subtilis = experiment: as above; type: cell-based; conditions: 30° C., 17 hours, 1:40 = 2 mg/ml, <40-fold = no complete inhibition at 1:40
[2] = tested on: AIDS virus (HIV-1, HIV-2); experiment: Complete inhibitory activity against AIDS virus, MT-4 cells, 12-well microplate, 3- and 6-day culture; type: cell-based; conditions: for lowest sample concentration (circle-marked well) at which AIDS virus growth was inhibited completely (100%): MT-4 cells, 2-fold dilutions from 1000 μg/ml
K. pneumoniae = experiment: Antibacterial activity test (2), dilution on agar culture medium; type: cell-based; conditions: 30° C., 17 hours, 1:40 = 2 mg/ml, <40-fold = no complete inhibition at 1:40
[3] = tested on: Influenza virus A/Hokkaidou/1/97 (H3N2); experiment: organism not typed; type: cell-based; conditions: for MIC: read-out: Minimum inhibitory concentration (MIC)
MT-4 cells [4] = experiment: Cell damage caused by the sample in the AIDS virus microplate test; conditions: for cell damage / cytotoxicity (in words): AIDS virus test
E. coli O157 = type: cell-based; conditions: 30° C., 17 hours, 1:40 = 2 mg/ml, <40-fold = no complete inhibition at 1:40
S. aureus = experiment: Antibacterial activity test (2), dilution on agar culture medium; type: cell-based; conditions: 30° C., 17 hours, 1:40 = 2 mg/ml, <40-fold = no complete inhibition at 1:40
Description: Aqueous solutions of each specimen (powders) at a concentration of 8% was diluted 1:40 as the specimen stock solution for MIC measurement. The stock solution diluted at a graduation ratio of 1:40 to 1:400 and the stock solution were added to the agar culture medium on which 6 test […] were inoculated, and incubated at 30° C. for 17 hours. Growth inhibition bands were examined on the agar culture medium. The specimen stock solution was prepared by diluting 25 ml of 8% solution with 1000 cc of distilled water(1:40 dilution), which is converted into the amount per 2 mg/ml by solid content.
However, the remaining samples that were indicative of “<40-fold (lower than the 1:40 dilution)” were proven to have a certain degree of inhibitory effects. They are expected to show the complete inhibitory effects against the bacterial growth, by increasing the concentration level. As a consequence, the samples, 5, 6, 11-14 were recognized to have sufficient useful antibacterial activity.

P. aerginos = experiment: as above; type: cell-based; conditions: 30° C., 17 hours, 1:40 = 2 mg/ml, <40-fold = no complete inhibition at 1:40
[5] = tested on: Influenza virus A/Hokkaidou/1/96 (H1N1); experiment: organism not typed; type: cell-based; conditions: for MIC: read-out: Minimum inhibitory concentration (MIC)
[6] = oral; cited from earlier work
influenza virus = conditions: in vivo, po
MT-4 cells [7] = tested on: MT-4 cells
[8] = tested on: influenza virus (H1N1, H3N2, Type B); type: cell-based
[9] = H3N2, stock 10 mg/ml, read when virus multiplied to 100 TCID (3-4 days)
[10] = H1N1, stock 10 mg/ml, read when virus multiplied to 100 TCID (3-4 days)
[11] = H1N1, liquid samples, stock 10 μl/ml guaiacol, 2 μl/ml 2,6-dimethoxyphenol

Compound: COc1cc(C=O)cc(OC)c1O [sample 13, Syringaldehyde]
- MIC [1]: 3800 µg/mL (≈ 20.9 mM)
- dilution of 8% solution giving complete growth inhibition (S. Enteritidis): <40 fold
- dilution of 8% solution giving complete growth inhibition (B. subtilis): <40-fold
- lowest sample concentration (circle-marked well) at which AIDS virus growth was inhibited completely (100%) ([2]; 6-day culture): 3.91 µg/mL
- dilution of 8% solution giving complete growth inhibition (K. pneumoniae): <40-fold
- MIC [3]: 1900 µg/mL (≈ 10.4 mM)
- cell damage / cytotoxicity (in words) (MT-4 cells [4]): severe cell damage
- dilution of 8% solution giving complete growth inhibition (E. coli O157): <40-fold
- dilution of 8% solution giving complete growth inhibition (S. aureus): <40-fold
- dilution of 8% solution giving complete growth inhibition (P. aerginos): <40-fold
- MIC [5]: 3800 µg/mL (≈ 20.9 mM)

Compound: COc1cc(O)cc(OC)c1 [sample 4, 3,5-dimethoxyphenol]
- MIC ([1]; Type B, stock 10 mg/ml, read when virus multiplied to 100 TCID (3-4 days)): 3800 µg/mL (≈ 24.6 mM)
- lowest sample concentration (circle-marked well) at which AIDS virus growth was inhibited completely (100%) ([2]; 3-day culture): ◯ (125) μg/ml
- lowest sample concentration (circle-marked well) at which AIDS virus growth was inhibited completely (100%) ([2]; 6-day culture): ◯ (125) μg/ml
- lowest sample concentration (circle-marked well) at which AIDS virus growth was inhibited completely (100%) ([2]; 6-day culture, listed as 3,5-dimethoxyphenol): 125 µg/mL
- MIC [3, 9]: 1900 µg/mL (≈ 12.3 mM)
- well up to which cell damage was observed (MT-4 cells [4]; 6-day incubation, well number): 3 (250)
- cell damage when 3,4-dimethoxyphenol was added to the sample (MT-4 cells [4]; ratio of 1:1, anti-viral effect not reduced): only in the first well
- MIC [5, 10]: 5000 µg/mL (≈ 32.4 mM)

Compound: Lignosulfonic acid sodium salt [sample 5]
- cell damage (MDCK cells): not seen

Compound: COc1cc(S(=O)(=O)[O-])ccc1O.COc1cc(S(=O)(=O)[O-])ccc1O.O.[K+].[K+] [guaiacol-4-sulfonate potassium salt 0.5-hydrate, reference compound]
- anti-AIDS virus activity (in words) ([2]; cell-level test): not to possess effective anti-AIDS virus activity
- cell damage / cytotoxicity (in words) (MT-4 cells [4]): caused cell damage

Compound: COc1ccccc1O [sample 1, Guaiacol]
- Minimum inhibitory concentration (MIC) ([1]; Type B, liquid samples, stock 10 μl/ml guaiacol, 2 μl/ml 2,6-dimethoxyphenol): 3.8 μl/ml
- lowest sample concentration (circle-marked well) at which AIDS virus growth was inhibited completely (100%) ([2]; 3-day culture): ◯ (31.3) μg/ml
- lowest sample concentration (circle-marked well) at which AIDS virus growth was inhibited completely (100%) ([2]; 3-day culture, listed as guaiacol): 31.3 µg/mL
- lowest sample concentration (circle-marked well) at which AIDS virus growth was inhibited completely (100%) ([2]; 6-day culture): ◯ (125) μg/ml
- lowest sample concentration (circle-marked well) at which AIDS virus growth was inhibited completely (100%) ([2]; 6-day culture, listed as guaiacol): 125 µg/mL
- Minimum inhibitory concentration (MIC) ([3]; H3N2, liquid samples, stock 10 μl/ml guaiacol, 2 μl/ml 2,6-dimethoxyphenol): 1.9 μl/ml
- toxicity level in a human (ORL-HMN) [6]: 43 mg/kg
- concentration up to which cell damage was observed (MT-4 cells [4]; 3-day incubation): 250 µg/mL
- concentration up to which cell damage was observed (MT-4 cells [4]; 6-day incubation): 250 µg/mL
- Minimum inhibitory concentration (MIC) [5, 11]: 3.8 μl/ml

Compound: Lignosulfonic acid sodium salt acetate [sample 6]
- cell damage (MDCK cells): not seen
- side effects (influenza virus): not seen

Compound: COc1cc(C(O)C(CO)Oc2c(OC)cccc2OC)cc(OC)c1O (stereo not drawn) [SOS, syringylglycerol-β-syringyl ether, reference compound]
- viral (inhibitory) activity against AIDS virus ([2]; 3rd day of culture): 15.6 μl/ml
- cell damage (MT-4 cells [7]): 31.3 μl/ml

Compound: COc1cccc(OC)c1O [sample 3, 2,6-dimethoxyphenol]
- lowest sample concentration (circle-marked well) at which AIDS virus growth was inhibited completely (100%) ([2]; 3-day culture): ◯ (31.3) μg/ml
- lowest sample concentration (circle-marked well) at which AIDS virus growth was inhibited completely (100%) ([2]; 6-day culture): ◯ (31.3) μg/ml
- effect against influenza virus (in words) [8]: not effective
- Minimum inhibitory concentration (MIC) [5, 11]: > 1.0 μl/ml

Compound: COc1cc(C(O)C(CO)Oc2ccccc2OC)ccc1OCc1ccccc1 (stereo not drawn) [sample 12, 4-benzyloxyguaiacylglycerol-β-guaiacylether]
- Minimum inhibitory concentration (MIC) [1]: 2.5 mg/mL (≈ 6.09 mM)
- dilution of 8% solution giving complete growth inhibition (S. Enteritidis): <40-fold
- dilution of 8% solution giving complete growth inhibition (B. subtilis): <40-fold
- viral (inhibitory) activity against AIDS virus ([2]; 6th day of culture): 125 μl/ml
- dilution of 8% solution giving complete growth inhibition (K. pneumoniae): <40-fold
- Minimum inhibitory concentration (MIC) [3, 9]: 2.5 mg/mL (≈ 6.09 mM)
- dilution of 8% solution giving complete growth inhibition (E. coli O157): <40-fold
- dilution of 8% solution giving complete growth inhibition (S. aureus): <40-fold
- dilution of 8% solution giving complete growth inhibition (P. aerginos): <40-fold
- Minimum inhibitory concentration (MIC) [5, 10]: 8.0 mg/mL (≈ 19.5 mM)
